In PMC6458983 (Cancer Chemotherapy and Pharmacology, 2019):
Read-outs that look alike come from different tables or passages of the source.

Legend:
[1] = tested on: Japanese patients with NSCLC
Experimental: Area under the plasma concentration–time curve from 0 to 24 h (AUC0–24) and maximum plasma concentrations (Cmax) were calculated using empirical Bayesian estimates of pharmacokinetic parameters in the final population pharmacokinetic model. AUC0–24 and Cmax were chosen as exposure metrics. The incidence of ILD was summarized for four exposure levels, defined using exposure quartiles after a single dose and at steady state, respectively.
After a single dose, predicted pharmacokinetic values were available for all 51 patients with ILD and all 285 patients without ILD. […] Each pharmacokinetic parameter was quartiled separately.

[2] = sustained elevation of gastric pH; cited from earlier work
CYP3A4 = details: in vitro and in vivo studies; cited from earlier work
[3] = after a single dose, third-quartile cut-off of predicted exposure

## COc1cc2ncnc(Nc3ccc(F)c(Cl)c3)c2cc1OCCCN1CCOCC1 [gefitinib]
[1]; after a single dose, AUC0–24 Quartile 1
  Proportion of patients with ILD, by AUC quartile: 11.9%
[1]; after a single dose, AUC0–24 Quartile 2
  Proportion of patients with ILD, by AUC quartile: 8.3%
[1]; after a single dose, AUC0–24 Quartile 3
  Proportion of patients with ILD, by AUC quartile: 8.3%
[1]; after a single dose, AUC0–24 Quartile 4
  Proportion of patients with ILD, by AUC quartile: 32.1%
[1]; after a single dose, Cmax Quartile 1
  Proportion of patients with ILD, by Cmax quartile: 11.9%
[1]; after a single dose, Cmax Quartile 2
  Proportion of patients with ILD, by Cmax quartile: 8.3%
[1]; after a single dose, Cmax Quartile 3
  Proportion of patients with ILD, by Cmax quartile: 9.5%
[1]; after a single dose, Cmax Quartile 4
  Proportion of patients with ILD, by Cmax quartile: 31.0%
[1]; [3]
  AUC0–24 lower than or equal to the third quartile: ≤ 3855 ng·h/mL
  Cmax lower than or equal to the third quartile: ≤ 207 ng/mL
[1]; at steady state, AUC0–24,ss Quartile 1
  Proportion of patients with ILD, by AUC quartile: 5.1%
[1]; at steady state, AUC0–24,ss Quartile 2
  Proportion of patients with ILD, by AUC quartile: 7.8%
[1]; at steady state, AUC0–24,ss Quartile 3
  Proportion of patients with ILD, by AUC quartile: 15.4%
[1]; at steady state, AUC0–24,ss Quartile 4
  Proportion of patients with ILD, by AUC quartile: 14.3%
[1]; at steady state, Cmax,ss Quartile 1
  Proportion of patients with ILD, by Cmax quartile: 6.4%
[1]; at steady state, Cmax,ss Quartile 2
  Proportion of patients with ILD, by Cmax quartile: 6.5%
[1]; at steady state, Cmax,ss Quartile 3
  Proportion of patients with ILD, by Cmax quartile: 17.9%
[1]; at steady state, Cmax,ss Quartile 4
  Proportion of patients with ILD, by Cmax quartile: 11.7%
[2]
  decrease of bioavailability: 47%
CYP3A4
  enzyme involved in the metabolic clearance: CYP3A4 is the major enzyme
